Measurements: US11304918B2, “Methods and compositions for the treatment of diverticulosis” (Emmaus Medical, Inc., priority 2011, dated 2022)

System: diverticula
Assay: Number of diverticula observed by colonoscopy in a person with diverticulosis ingesting L-glutamine
Format: in vivo
Conditions: one person, 30 g of L-glutamine per day as an aqueous solution, ingested, after twelve months
From the text: Compositions according to the present invention may be used to treat diverticulosis as determined by a number of different methods to image colon pouches. Nonlimiting examples of imaging methods include: colonoscopy; computed tomography; and, x-ray based on a barium enema. […] The person ingested 30 g of L-glutamine per day as an aqueous solution. After twelve months of L-glutamine administration, the number of diverticula had been reduced by ninety (90) percent.

## NC(=O)CC[C@H](N)C(=O)O [L-glutamine]
  reduction of the number of diverticula: 90%
